# Results published in patent US20130296393A1, “METHOD FOR CONTROLLING CLUBROOT” (ISHIHARA SANGYO KAISHA, LTD., priority 2011, published 2013).
# Columns and labels:
# Assay type in all cases: in vivo
# Plasmodiophora brassicae [1] = assay: Cabbage clubroot control test, pot test, cyazofamid vs chlorothalonil (Example 3 / Comparative Example 3); set-up: key to Disease control value: control value = (1 − treated/control severity) × 100; key to Disease severity: severity = Σ(plants × index 0-4)/(plants × 4) × 100; conditions: for Disease control value / Disease severity: 57 days after settled planting
# Source text: (§1) Disease severity={Σ(number of each index of diseased plants×disease index)/(number of plants surveyed×4)}×100
# (§2) Disease control value={1−(treatment disease severity/control disease severity)}×100
# (§3) 0: No adhesion of clubroot, 1: clubroot adhesion to lateral root, 2: clubroot adhesion to the entire lateral root or clubroot adhesion to a part of tap root, 3: adhesion of large clubroot to tap root, and 4: clubroot adhesion to the entire tap root.
# A spore suspension of Plasmodiophora brassicae (fungus density: 1×10^5 fungi/g dry soil) was inoculated into a sterilization soil adjusted to pH of 6.0 with Sandoseto and after introducing the resulting test soil into a 1/5000 a pot, a cabbage (variety: Okina) seedling grown in a cell seedling tray (128 cells/seedling box) was settled-planted by establishing five plantings for each test section having a size of 0.02 m^2 for one plant. Immediately, 4 days, 7 days and 14 days after settled planting, the chemical solution for spraying prepared by the same method as in Example 1(1) was drenched into the soil in a ratio of 250 ml/plant. Fifty-seven days after the settled planting, the number of each index of clubroot adhesion to the root was investigated. For comparison, the same test was carried out on a control section where a soil drench treatment with the chemical solution for spraying was not applied.
# A chemical solution for spraying in a concentration of 800 ppm was prepared by diluting 40% chlorothalonil (Daconil 1000 [trade name], manufactured by SDS K.K.) with water.
# The test was carried out by the same procedure as in Example 3 except that the chemical solution (cyazofamid) for spraying was replaced by the chemical solution (chlorothalonil) for spraying prepared in Comparative Example 3(1).
# (§4) The disease severity and disease control value of Example 3 and Comparative Example 3 were determined by the same methods as in Example 1 and Comparative Example 1. In addition, the weight of cabbage in the aerial part was measured. Furthermore, the test result was shown by the average value of five plantings.
# Plasmodiophora brassicae [2] = assay: Cabbage clubroot control test, farm field (Example 2 / Comparative Example 2); set-up: key to Disease control value: control value = {1 − (treated severity/control severity)}×100; key to Disease severity: severity = Σ(plants×index 0–4)/(plants surveyed×4)×100; conditions: for Disease control value / Disease severity: 77 days after settled planting
# Source text: as §1, §2, §3
# A spore suspension of Plasmodiophora brassicae was sprayed on the entire farm field by using a watering pot to have a fungus density of 1×10^4 fungi/g dry soil. In this farm field, a cabbage (variety: Okina) seedling grown in a cell seedling tray (128 cells/seedling box) was settled-planted by establishing two plantings for each test section containing ten plants (interplant distance: 30 cm, interrow space: 30 cm, planting in two rows). Just after the settled planting, 4 days, 7 days and 11 days after settled planting, the chemical solution for spraying prepared by the same method as in Example 1(1) was drenched into the soil in a ratio of 250 ml/plant. Seventy-seven days after the settled planting, the number of each index of clubroot adhesion to the root was investigated. For comparison, the same test was carried out on a control section where a soil drench treatment with the chemical solution for spraying was not applied.
# The test was carried out by the same method as in Example 2 except that in place of the soil drench treatment with the chemical solution for spraying, a chemical solution for spraying prepared by the same method as in Example 1(1) was sprayed on a cabbage (variety: Okina) seedling grown in a cell seedling tray (128 cells/seedling box) at a concentration of 2 liters/cell seedling tray by using a watering pot and these seedlings were settled-planted.
# as §4, with “2” for “3”, “two” for “five”
# Plasmodiophora brassicae [3] = assay: Influence of rainfall on clubroot control effect in cabbage (Example 4 / Comparative Example 4); set-up: key to Disease severity: 0–100 index: Σ(plants×disease index 0–4)/(plants×4)×100; key to Disease control value: {1−(treatment severity/control severity)}×100; 100 = full control; conditions: pot; for Disease control value / Disease severity: 67 days after settled planting
# Procedure: as §1, §2, §3
# The test was carried out by the same method as in Example 3 except for preparing an area subjected to a rainfall treatment of 20 mm by means of a rainfall apparatus (a treatment at a rate of 10 mm/hour for 2 hours) the day before treatment, and an area not subjected to the rainfall treatment. Sixty-seven days after the settled planting, the number of each index of clubroot adhesion to the root was investigated. For comparison, the same test was carried out on a control section where a soil drench treatment with the chemical solution for spraying was not applied.
# The test was carried out by the same method as in Example 4 except that in place of the soil drench treatment with the chemical solution for spraying, 30 kg/10 a of 0.3% flusulfamide (dust formulation of Nebijin [trade name], manufactured by Mitsui Chemicals Agro, Inc.) was applied to the test soil just before the settled planting and incorporated into the soil by means of a small mixer (interfusion depth: 15 cm).
# as §4, with “4” for “3”
# [4] = 50 ppm soil drench 250 ml/plant 4 days after settled planting
# [5] = 50 ppm soil drench 250 ml/plant 7 days after settled planting
# [6] = 50 ppm soil drench 250 ml/plant 14 days after settled planting
# [7] = 50 ppm soil drench 250 ml/plant just after settled planting
# [8] = 50 ppm soil drench 250 ml/plant 11 days after settled planting
# [9] = 50 ppm solution sprayed on seedlings in cell tray, 2 liters/cell seedling tray, just before settled planting
# [10] = with rainfall treatment 20 mm, 50 ppm soil drench 250 ml/plant 4 days after settled planting
# [11] = with rainfall treatment 20 mm, 50 ppm soil drench 250 ml/plant 7 days after settled planting
# [12] = with rainfall treatment 20 mm, 50 ppm soil drench 250 ml/plant 14 days after settled planting
# [13] = with rainfall treatment 20 mm, 50 ppm soil drench 250 ml/plant just after settled planting
# [14] = without rainfall treatment, 50 ppm soil drench 250 ml/plant just after settled planting
smiles,measurement,setting,value
"Cc1ccc(-c2c(Cl)nc(C#N)n2S(=O)(=O)N(C)C)cc1 [cyazofamid, 4-chloro-2-cyano-1-dimethylsulfamoyl-5-(4-methylphenyl)imidazole]",Weight in the aerial part,Plasmodiophora brassicae [1]; [4],109 g
same,Disease control value,Plasmodiophora brassicae [1]; [4],81
same,Disease severity,Plasmodiophora brassicae [1]; [4],15
same,Weight in the aerial part,Plasmodiophora brassicae [1]; [5],109 g
same,Disease control value,Plasmodiophora brassicae [1]; [5],88
same,Disease severity,Plasmodiophora brassicae [1]; [5],10
same,Weight in the aerial part,Plasmodiophora brassicae [1]; [6],91 g
same,Disease control value,Plasmodiophora brassicae [1]; [6],0
same,Disease severity,Plasmodiophora brassicae [1]; [6],80
same,Weight in the aerial part,Plasmodiophora brassicae [1]; [7],104 g
same,Disease control value,Plasmodiophora brassicae [1]; [7],100
same,Disease severity,Plasmodiophora brassicae [1]; [7],0
same,Control effect,"Plasmodiophora brassicae [1]; 50 ppm soil drench, treatment within 7 days after settled planting",a control effect which was sufficient for practical use was obtained
same,Weight in the aerial part,Plasmodiophora brassicae [2]; [4],666 g
same,Disease control value,Plasmodiophora brassicae [2]; [4],87
same,Disease severity,Plasmodiophora brassicae [2]; [4],7
same,Weight in the aerial part,Plasmodiophora brassicae [2]; [5],579 g
same,Disease control value,Plasmodiophora brassicae [2]; [5],30
same,Disease severity,Plasmodiophora brassicae [2]; [5],38
same,Weight in the aerial part,Plasmodiophora brassicae [2]; [8],563 g
same,Disease control value,Plasmodiophora brassicae [2]; [8],11
same,Disease severity,Plasmodiophora brassicae [2]; [8],48
same,Weight in the aerial part,Plasmodiophora brassicae [2]; [7],713 g
same,Disease control value,Plasmodiophora brassicae [2]; [7],44
same,Disease severity,Plasmodiophora brassicae [2]; [7],30
same,Weight in the aerial part,Plasmodiophora brassicae [2]; [9],745 g
same,Disease control value,Plasmodiophora brassicae [2]; [9],44
same,Disease severity,Plasmodiophora brassicae [2]; [9],30
same,Weight in the aerial part,Plasmodiophora brassicae [3]; [10],133 g
same,Disease control value,Plasmodiophora brassicae [3]; [10],100
same,Disease severity,Plasmodiophora brassicae [3]; [10],0
same,Weight in the aerial part,Plasmodiophora brassicae [3]; [11],129 g
same,Disease control value,Plasmodiophora brassicae [3]; [11],93
same,Disease severity,Plasmodiophora brassicae [3]; [11],5
same,Weight in the aerial part,Plasmodiophora brassicae [3]; [12],103 g
same,Disease control value,Plasmodiophora brassicae [3]; [12],29
same,Disease severity,Plasmodiophora brassicae [3]; [12],50
same,Weight in the aerial part,Plasmodiophora brassicae [3]; [13],121 g
same,Disease control value,Plasmodiophora brassicae [3]; [13],100
same,Disease severity,Plasmodiophora brassicae [3]; [13],0
same,Control effect,"Plasmodiophora brassicae [3]; with rainfall treatment, soil drench within 7 days after settled planting",a practical control effect was obtained
same,Weight in the aerial part,Plasmodiophora brassicae [3]; [14],129 g
same,Disease control value,Plasmodiophora brassicae [3]; [14],100
same,Disease severity,Plasmodiophora brassicae [3]; [14],0
